In patent US20110015198A1, “DIARYLMETHYLAMIDE DERIVATIVE HAVING MELANIN-CONCENTRATING HORMONE RECEPTOR ANTAGONISM” (BANYU PHARMACEUTICAL CO., INC., priority 2008, published 2011) one finds IC50 data, which are given here for 5 molecules.

T1 sequence (Q99705 whole entry): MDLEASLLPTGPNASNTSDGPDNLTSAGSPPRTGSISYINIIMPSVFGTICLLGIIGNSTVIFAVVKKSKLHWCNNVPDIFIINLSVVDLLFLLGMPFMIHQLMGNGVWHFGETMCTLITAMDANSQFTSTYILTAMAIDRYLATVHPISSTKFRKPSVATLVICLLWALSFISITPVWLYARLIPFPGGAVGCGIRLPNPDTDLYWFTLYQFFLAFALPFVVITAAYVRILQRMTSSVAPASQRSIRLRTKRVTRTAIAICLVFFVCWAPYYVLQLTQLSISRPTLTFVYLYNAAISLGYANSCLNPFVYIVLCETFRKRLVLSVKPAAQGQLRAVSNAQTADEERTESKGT

This assay addresses T1, human MCH-1R (Homo sapiens, UniProt Q99705).
T1 construct: expressed in transfected cells; host or cells: CHO-K1 (American Type Culture Collection), plasmid vector pEF/myc/cyto
The assay can be described thus: MCH binding inhibition test. The note with it: membrane samples from MCH-1R expressing CHO-K1 cells, 50 pM [125I]MCH, 25° C., one hour; read-out: IC50 (nM); 50% inhibition concentration (IC50 value) for specific [125I]MCH binding. From the text:
Pharmacological test example: MCH binding inhibition test A cDNA sequence encoding human MCH-1R [FEBS Letters, Vol. 398, 253 (1996); Biochimica et Biophisica Acta, Vol. 1401, 216 (1998)] was cloned to a plasmid vector pEF/myc/cyto (manufactured by Invitrogen). The obtained expression vector was transfected to a host cell CHO-K1 (American Type Culture Collection) using Lipofectamine Plus reagent (manufactured by Life Technology) to provide MCH-1R expression cells.
Membrane samples prepared from the MCH-1R expression cells were incubated with a test compound and 50 pM [^125I]MCH (manufactured by NEN) in an assay buffer (50 mM Tris buffer containing 10 mM magnesium chloride, 2 mM ethylenediamine tetraacetate, 0.01% bacitracin, and 0.2% bovine serum albumin; pH 7.4) at 25° C. for one hour, followed by filtration through a glass filter GF/C (manufactured by Wattman). The glass filter was washed with 50 mM Tris buffer (pH 7.4) containing 10 mM magnesium chloride, 2 mM ethylenediamine tetraacetate, and 0.04% Tween-20, and then the radioactivity on the glass filter was determined Non-specific binding was measured in the presence of 1 μM human MCH, and, with respect to each test compound, 50% inhibition concentration (IC50 value) for specific [^125I]MCH binding was determined.
Usually IC50 stands for the midpoint of a concentration-inhibition curve. `CN(C(=O)C(C)(C)O)C(c1ccc(F)c(F)c1)c1ccc(CN2CCC(c3ccc(F)nc3)CC2)cn1` (single isomer, unassigned) [Example 1-37, (R)— or (S)—N-[(3,4-difluorophenyl)(5-{[4-(6-fluoropyridin-3-yl)piperidin-1-yl]methyl}pyridin-2-yl)methyl]-2-hydroxy-N,2-dimethylpropanamide]: the IC50 amounted to 17 nM.
The same measure for `CC(NC(=O)C(F)F)(c1ccc(F)c(F)c1)c1ccc(CN2CCC(c3ccc(F)nc3)CC2)cn1` (single isomer, unassigned) [Example 1-58, (R)— or (S)—N-[1-(3,4-difluorophenyl)-1-(5-{[4-(6-fluoropyridin-3-yl)piperidin-1-yl]methyl}pyridin-2-yl)ethyl]-2,2-difluoroacetamide]: 1.7 nM.
Turning to `O=C1C(F)CCN1C(c1ccc(CN2CCC3(CC2)OCc2ccncc23)cc1)c1ccc(F)c(F)c1` (single isomer, unassigned) [Example 2-5, (3R)— or (3S)—[(R)— or (S)-1-{(3,4-difluorophenyl)[4-(1H,1′H-spiro[furo[3,4-c]pyridine-3,4′-piperidin]-1′-ylmethyl)phenyl]methyl}]-3-fluoropyrrolidin-2-one], the IC50 was 0.18 nM.
For `Cn1cc2c(cc1=O)C1(CCN(Cc3ccc(C(c4ccc(F)c(F)c4)N4CCCS4(=O)=O)cc3)CC1)OC2` (centres unmarked) [Example 1-20, 1′-{4-[(3,4-difluorophenyl)(1,1-dioxideisothiazolidin-2-yl)methyl]benzyl}-5-methyl-3,5-dihydro-6H-spiro[furo[3,4-c]pyridine-1,4′-piperidin]-6-one], the IC50 worked out at 2.9 nM.
In the case of `O=C1CCCN1C(c1ccc(CN2CCC3(CC2)OCc2ccncc23)cc1)c1ccc(F)c(F)c1` (centres unmarked) [Example 2-1, 1-{(3,4-difluorophenyl)[4-(1H,1′H-spiro[furo[3,4-c]pyridine-3,4′-piperidin]-1′-ylmethyl)phenyl]methyl}pyrrolidin-2-one], the IC50 worked out at 0.26 nM.
